Source: ChEMBL document CHEMBL1201862, “PubChem BioAssay data set” (2004)
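These data come from cells grown in 96-well plates and exposed to compound for 48 hours at five concentrations. At the GI50, growth is halved.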 Activity calls are given as the source filed them. Rule as the data show it: active = GI50 up to about 1.1 µM and inactive = higher. Where a SMILES comes first, the peptide text is derived from it.

What was measured:
Assay in all cases: DTP human tumour cell line panel, 48 h
786-0 = tested on: 786-0
CAKI-1 = tested on: CAKI-1
COLO 205 = tested on: COLO 205
DU-145 = tested on: DU-145
HCT-116 = tested on: HCT-116
MDA-MB-231 = tested on: MDA-MB-231
MDA-N = tested on: MDA-N
NCI/ADR-RES = tested on: NCI/ADR-RES
OVCAR-5 = tested on: OVCAR-5
RXF 393 = tested on: RXF 393
SF-268 = tested on: SF-268
SK-MEL-5 = tested on: SK-MEL-5
SN12C = tested on: SN12C
UACC-257 = tested on: UACC-257
UACC-62 = tested on: UACC-62
UO-31 = tested on: UO-31
HOP-92 = tested on: HOP-92
LOX IMVI = tested on: LOX IMVI
SF-539 = tested on: SF-539

Structure (SMILES)	GI50 (786-0)	GI50 (CAKI-1)	GI50 (COLO 205)	GI50 (DU-145)	GI50 (HCT-116)	GI50 (MDA-MB-231)	GI50 (MDA-N)	GI50 (NCI/ADR-RES)	GI50 (OVCAR-5)	GI50 (RXF 393)	GI50 (SF-268)	GI50 (SK-MEL-5)	GI50 (SN12C)	GI50 (UACC-257)	GI50 (UACC-62)	GI50 (UO-31)	GI50 (HOP-92)	GI50 (LOX IMVI)	GI50 (SF-539)
CCOC(=O)c1nnsc1NC(=O)Nc1ccc(Cc2ccc(NC(=O)Nc3snnc3C(=O)OCC)cc2)cc1	18.2 µM (inactive)	41 µM (inactive)	> 100 µM (inactive)	32.8 µM (inactive)	30.8 µM (inactive)	28.2 µM (inactive)	69.3 µM (inactive)	> 100 µM (inactive)	> 100 µM (inactive)	18.2 µM (inactive)	> 100 µM (inactive)	29.6 µM (inactive)	28.3 µM (inactive)	> 100 µM (inactive)	76 µM (inactive)	> 100 µM (inactive)	–	–	–
Nc1ccc(-c2nc3ccccc3s2)cc1Br	76.9 µM (inactive)	> 100 µM (inactive)	> 100 µM (inactive)	> 100 µM (inactive)	–	52.6 µM (inactive)	> 100 µM (inactive)	> 100 µM (inactive)	0.134 µM (active)	> 38.9 µM (inactive)	61 µM (inactive)	> 100 µM (inactive)	> 100 µM (inactive)	> 100 µM (inactive)	> 100 µM (inactive)	27.5 µM (inactive)	26.5 µM (inactive)	> 80.9 µM (inactive)	> 51.3 µM (inactive)
CC(=O)OCC1OC(n2c(C)c(C(C)=O)c(-c3ccco3)c(C#N)c2=S)C(OC(C)=O)C(OC(C)=O)C1OC(C)=O (stereo unspecified)	> 100 µM (inactive)	–	> 100 µM (inactive)	> 100 µM (inactive)	> 100 µM (inactive)	> 100 µM (inactive)	> 100 µM (inactive)	> 100 µM (inactive)	> 100 µM (inactive)	> 100 µM (inactive)	> 100 µM (inactive)	78.5 µM (inactive)	> 100 µM (inactive)	> 100 µM (inactive)	> 100 µM (inactive)	< 0.01 µM (active)	15.6 µM (inactive)	64.3 µM (inactive)	> 100 µM (inactive)
NC(=O)CSc1c2cc(O)ccc2nc2ccc(O)cc12	> 10 µM (inactive)	> 10 µM (inactive)	> 10 µM (inactive)	> 10 µM (inactive)	> 10 µM (inactive)	> 10 µM (inactive)	> 10 µM (inactive)	> 10 µM (inactive)	> 10 µM (inactive)	> 10 µM (inactive)	> 10 µM (inactive)	> 10 µM (inactive)	> 10 µM (inactive)	> 10 µM (inactive)	> 10 µM (inactive)	–	> 10 µM (inactive)	> 10 µM (inactive)	> 10 µM (inactive)
N/C(=N\Nc1ccc(Cl)cc1)c1cnccn1	68.7 µM (inactive)	> 100 µM (inactive)	18 µM (inactive)	> 100 µM (inactive)	22.4 µM (inactive)	> 100 µM (inactive)	10.4 µM (inactive)	44 µM (inactive)	> 100 µM (inactive)	> 100 µM (inactive)	> 100 µM (inactive)	21.1 µM (inactive)	> 100 µM (inactive)	28.3 µM (inactive)	5.04 µM (inactive)	50.7 µM (inactive)	> 100 µM (inactive)	84.1 µM (inactive)	–
CC(C)CC(NC(=O)C(Cc1ccccc1)NC(=O)C(Cc1c[nH]c2ccccc12)NC(=O)CNC(=O)C(N)Cc1ccc(O)cc1)C(=O)O (stereo unspecified) (H-YGWFL-OH; configuration not given here)	23.6 µM (inactive)	34.9 µM (inactive)	16.4 µM (inactive)	31.8 µM (inactive)	27.4 µM (inactive)	52.1 µM (inactive)	35.4 µM (inactive)	67.6 µM (inactive)	> 100 µM (inactive)	40.3 µM (inactive)	47.3 µM (inactive)	29 µM (inactive)	48.6 µM (inactive)	41.2 µM (inactive)	67.3 µM (inactive)	81.3 µM (inactive)	14 µM (inactive)	–	33.8 µM (inactive)
O=C(CC(O)(C(F)(F)F)C(F)(F)Cl)CC(O)(C(F)(F)F)C(F)(F)Cl (stereo unspecified)	3.47 µM (inactive)	2.74 µM (inactive)	1.69 µM (inactive)	1.17 µM (inactive)	1.67 µM (inactive)	2.05 µM (inactive)	3.21 µM (inactive)	2.58 µM (inactive)	–	2.23 µM (inactive)	2.31 µM (inactive)	1.72 µM (inactive)	1.5 µM (inactive)	1.32 µM (inactive)	1.65 µM (inactive)	1.44 µM (inactive)	1.71 µM (inactive)	2.82 µM (inactive)	1.34 µM (inactive)
Nc1nc(N)c2nnn(C[C@H]3CC[C@@H](CO)C3)c2n1	> 100 µM (inactive)	> 100 µM (inactive)	> 100 µM (inactive)	> 100 µM (inactive)	> 100 µM (inactive)	> 100 µM (inactive)	> 100 µM (inactive)	> 100 µM (inactive)	> 100 µM (inactive)	> 100 µM (inactive)	> 100 µM (inactive)	–	38.5 µM (inactive)	> 100 µM (inactive)	> 100 µM (inactive)	> 100 µM (inactive)	> 100 µM (inactive)	> 100 µM (inactive)	> 100 µM (inactive)
Cn1cnc([N+](=O)[O-])c1Sc1nc(N)nc2c1ncn2Cc1ccccc1	19 µM (inactive)	13.3 µM (inactive)	16.2 µM (inactive)	20.8 µM (inactive)	20.7 µM (inactive)	19.7 µM (inactive)	19.4 µM (inactive)	51.9 µM (inactive)	23.2 µM (inactive)	19.5 µM (inactive)	16.5 µM (inactive)	19 µM (inactive)	15.8 µM (inactive)	14.3 µM (inactive)	16.3 µM (inactive)	15.5 µM (inactive)	12 µM (inactive)	19.6 µM (inactive)	–
CC(=O)C(=NNc1ccc(-n2c(C)nc3ccc(Br)cc3c2=O)cc1)C(C)=O	33.7 µM (inactive)	> 100 µM (inactive)	> 100 µM (inactive)	93.8 µM (inactive)	88.3 µM (inactive)	37.2 µM (inactive)	> 100 µM (inactive)	54.1 µM (inactive)	> 100 µM (inactive)	–	56.4 µM (inactive)	65.6 µM (inactive)	> 100 µM (inactive)	> 100 µM (inactive)	82.4 µM (inactive)	> 100 µM (inactive)	74.3 µM (inactive)	> 100 µM (inactive)	47.3 µM (inactive)
COc1ccc(C(=O)N(Cc2cccnc2)C(=S)N(Cc2cccnc2)C(=O)c2ccc(OC)cc2)cc1	> 100 µM (inactive)	86.9 µM (inactive)	> 100 µM (inactive)	> 100 µM (inactive)	> 100 µM (inactive)	> 100 µM (inactive)	> 100 µM (inactive)	75.2 µM (inactive)	> 100 µM (inactive)	38.8 µM (inactive)	52.1 µM (inactive)	> 100 µM (inactive)	> 100 µM (inactive)	> 100 µM (inactive)	> 100 µM (inactive)	–	36.6 µM (inactive)	> 100 µM (inactive)	> 100 µM (inactive)
CCOC(=O)C1(C(=O)OCC)Nc2cccnc2N(C)N1	17.9 µM (inactive)	19 µM (inactive)	11.6 µM (inactive)	18.7 µM (inactive)	18.8 µM (inactive)	20.2 µM (inactive)	17.5 µM (inactive)	20 µM (inactive)	–	18 µM (inactive)	40.6 µM (inactive)	17.4 µM (inactive)	19.1 µM (inactive)	17.6 µM (inactive)	18 µM (inactive)	17.4 µM (inactive)	14.7 µM (inactive)	25.4 µM (inactive)	16.6 µM (inactive)
COc1cccc(CCn2c(N)c(C(=O)O)c3ccc([N+](=O)[O-])cc3c2=O)c1	31.1 µM (inactive)	43.5 µM (inactive)	20.7 µM (inactive)	40.2 µM (inactive)	25.1 µM (inactive)	16.9 µM (inactive)	30.3 µM (inactive)	28.9 µM (inactive)	52.2 µM (inactive)	28.7 µM (inactive)	37.7 µM (inactive)	24 µM (inactive)	21.8 µM (inactive)	–	52.4 µM (inactive)	31.2 µM (inactive)	–	35.2 µM (inactive)	–
N#Cc1c(N)c(C#N)c2c(c1-c1ccc(Cl)cc1)COc1ccccc1-2	3.02 µM (inactive)	–	48 µM (inactive)	21.6 µM (inactive)	12.2 µM (inactive)	24.2 µM (inactive)	18.5 µM (inactive)	20.9 µM (inactive)	24.9 µM (inactive)	15.4 µM (inactive)	29.4 µM (inactive)	22 µM (inactive)	12.4 µM (inactive)	44.1 µM (inactive)	30.1 µM (inactive)	4.04 µM (inactive)	15.3 µM (inactive)	29.7 µM (inactive)	18.5 µM (inactive)
Cc1ncc(CSC(=N)N)n1Cc1ccccc1	46 µM (inactive)	84.1 µM (inactive)	33.1 µM (inactive)	22.5 µM (inactive)	42.2 µM (inactive)	> 100 µM (inactive)	38.2 µM (inactive)	> 100 µM (inactive)	> 100 µM (inactive)	7.78 µM (inactive)	> 100 µM (inactive)	82.6 µM (inactive)	43.5 µM (inactive)	29.7 µM (inactive)	> 100 µM (inactive)	> 100 µM (inactive)	> 100 µM (inactive)	–	43.6 µM (inactive)
